Five compounds from ChEMBL document CHEMBL1128399, “Annulated heterocyclic bioisosteres of norarecoline. Synthesis and molecular pharmacology at five recombinant human muscarinic acetylcholine receptors” (J Med Chem, 1995) can be followed below.

Assay [1] has as its target Muscarinic acetylcholine receptor. Nature of the assay: In vitro binding affinity to the Muscarinic acetylcholine receptor by displacing [3H]PZ from the rat brain tissues.
For assay [2] the target is unchanged. Nature of the assay: In vitro binding affinity to the Muscarinic acetylcholine receptor by displacing [3H]QNB from the rat brain tissues.
Assay [3] has the same target. Description: In vitro binding affinity to the Muscarinic acetylcholine receptor by displacing [3H]- Oxo-M from the rat brain tissues.
The target is the same in assay [4]. Nature of the assay: In vitro binding affinity to the Muscarinic acetylcholine receptor by displacing [3H]-QNB from the rat heart tissues. It is filed as protein assay.
Assay [5] has the same target. Description: In vitro binding affinity to the Muscarinic acetylcholine receptor by displacing [3H]OXO-M from the rat brain tissues.
For assay [6], the system named is Muscarinic acetylcholine receptors (Rattus norvegicus). Description: Relative efficacy and M1 selectivity by agonist index.
Assay [7] concerns the target T1, Muscarinic acetylcholine receptor M5 (Homo sapiens, UniProt P08912).
T1 sequence (P08912 whole entry): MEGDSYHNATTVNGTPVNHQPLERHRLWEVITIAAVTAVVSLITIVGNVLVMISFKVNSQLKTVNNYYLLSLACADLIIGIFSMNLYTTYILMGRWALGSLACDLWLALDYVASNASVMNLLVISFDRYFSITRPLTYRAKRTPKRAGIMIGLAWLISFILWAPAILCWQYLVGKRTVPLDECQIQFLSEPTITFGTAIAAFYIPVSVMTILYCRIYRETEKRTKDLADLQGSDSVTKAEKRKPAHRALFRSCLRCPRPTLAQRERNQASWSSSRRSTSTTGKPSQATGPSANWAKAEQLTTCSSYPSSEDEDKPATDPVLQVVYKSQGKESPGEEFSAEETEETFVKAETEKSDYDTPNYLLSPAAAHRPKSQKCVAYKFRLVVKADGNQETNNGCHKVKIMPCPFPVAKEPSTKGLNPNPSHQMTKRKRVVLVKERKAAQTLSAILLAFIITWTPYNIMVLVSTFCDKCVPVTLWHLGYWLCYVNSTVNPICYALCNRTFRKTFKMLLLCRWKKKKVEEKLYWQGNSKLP
Description: In Vitro activity at the cloned Human Muscarinic acetylcholine receptor M5 determined by receptor selection and amplification technology (R-SAT).

Assay [8] concerns the target T2, Muscarinic acetylcholine receptor M1 (Homo sapiens, UniProt P11229).
T2 sequence (P11229 whole entry): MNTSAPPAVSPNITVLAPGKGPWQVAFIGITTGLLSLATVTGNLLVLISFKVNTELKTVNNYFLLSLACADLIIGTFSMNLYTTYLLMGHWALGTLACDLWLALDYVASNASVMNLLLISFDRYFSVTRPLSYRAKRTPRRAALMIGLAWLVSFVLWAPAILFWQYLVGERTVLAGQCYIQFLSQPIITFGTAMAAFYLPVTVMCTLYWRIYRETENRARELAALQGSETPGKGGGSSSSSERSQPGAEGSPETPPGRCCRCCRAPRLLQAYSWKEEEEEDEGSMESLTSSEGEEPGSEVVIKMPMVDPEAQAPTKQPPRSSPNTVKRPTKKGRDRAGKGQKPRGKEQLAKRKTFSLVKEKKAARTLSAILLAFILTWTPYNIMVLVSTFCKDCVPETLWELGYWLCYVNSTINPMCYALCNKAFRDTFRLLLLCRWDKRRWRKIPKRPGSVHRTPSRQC
Description: In Vitro evaluation activity at the cloned Human Muscarinic acetylcholine receptor M1 determined by receptor selection and amplification technology (R-SAT).

Assay [9] deals with T3, Muscarinic acetylcholine receptor M2 (Homo sapiens, UniProt P08172).
T3 sequence (P08172 whole entry): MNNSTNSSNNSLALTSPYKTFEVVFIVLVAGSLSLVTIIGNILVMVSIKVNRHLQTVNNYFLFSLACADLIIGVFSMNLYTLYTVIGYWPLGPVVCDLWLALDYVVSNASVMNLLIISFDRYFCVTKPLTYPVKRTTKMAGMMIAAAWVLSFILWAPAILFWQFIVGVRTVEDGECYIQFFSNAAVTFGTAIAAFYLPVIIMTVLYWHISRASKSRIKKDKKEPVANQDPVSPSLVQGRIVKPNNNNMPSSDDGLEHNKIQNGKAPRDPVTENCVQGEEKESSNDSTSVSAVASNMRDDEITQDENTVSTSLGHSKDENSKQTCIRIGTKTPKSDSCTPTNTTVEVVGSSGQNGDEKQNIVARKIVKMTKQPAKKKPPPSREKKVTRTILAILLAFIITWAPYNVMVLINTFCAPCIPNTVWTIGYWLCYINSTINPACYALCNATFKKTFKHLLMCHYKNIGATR
Description: In Vitro activity at the cloned Human Muscarinic acetylcholine receptor M2 determined by receptor selection and amplification technology (R-SAT).

The target of assay [10] is T4, Muscarinic acetylcholine receptor M4 (Homo sapiens, UniProt P08173).
T4 sequence (P08173 whole entry): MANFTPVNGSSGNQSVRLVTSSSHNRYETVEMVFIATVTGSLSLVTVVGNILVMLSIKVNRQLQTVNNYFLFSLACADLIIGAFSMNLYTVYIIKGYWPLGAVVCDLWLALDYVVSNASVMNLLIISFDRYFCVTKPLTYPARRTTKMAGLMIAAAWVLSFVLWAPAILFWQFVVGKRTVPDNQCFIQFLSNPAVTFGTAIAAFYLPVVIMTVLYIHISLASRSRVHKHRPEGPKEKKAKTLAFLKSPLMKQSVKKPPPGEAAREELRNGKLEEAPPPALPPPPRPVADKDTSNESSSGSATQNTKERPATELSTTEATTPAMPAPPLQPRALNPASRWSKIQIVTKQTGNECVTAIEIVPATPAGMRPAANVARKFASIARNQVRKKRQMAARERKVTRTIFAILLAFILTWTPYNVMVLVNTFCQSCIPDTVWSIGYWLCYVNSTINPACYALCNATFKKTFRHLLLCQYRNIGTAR
Description: In Vitro activity at the cloned Human Muscarinic acetylcholine receptor M4 determined by receptor selection and amplification technology (R-SAT).

The target in assay [11] is Muscarinic acetylcholine receptor M3 (Homo sapiens, UniProt P20309). Description: In Vitro activity at the cloned Human Muscarinic acetylcholine receptor M3 determined by receptor selection and amplification technology (R-SAT).
Muscarinic acetylcholine receptor M3, sequence (P20309 whole entry): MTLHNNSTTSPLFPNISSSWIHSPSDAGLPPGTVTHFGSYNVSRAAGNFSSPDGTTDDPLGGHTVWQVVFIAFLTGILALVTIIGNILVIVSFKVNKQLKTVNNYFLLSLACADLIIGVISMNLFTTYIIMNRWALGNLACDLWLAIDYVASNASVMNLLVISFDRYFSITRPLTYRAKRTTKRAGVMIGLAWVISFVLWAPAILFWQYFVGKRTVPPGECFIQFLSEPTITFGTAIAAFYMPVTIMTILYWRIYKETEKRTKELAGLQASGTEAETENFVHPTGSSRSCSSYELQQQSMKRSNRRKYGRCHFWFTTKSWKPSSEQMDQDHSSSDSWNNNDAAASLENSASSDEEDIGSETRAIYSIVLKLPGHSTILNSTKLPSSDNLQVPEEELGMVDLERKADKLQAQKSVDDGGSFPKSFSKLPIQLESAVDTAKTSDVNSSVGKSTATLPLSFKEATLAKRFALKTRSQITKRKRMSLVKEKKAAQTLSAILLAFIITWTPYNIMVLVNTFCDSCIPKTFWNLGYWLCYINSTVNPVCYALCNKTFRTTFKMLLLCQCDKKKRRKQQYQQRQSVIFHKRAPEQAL

Turning to `O=C1CCCN1CC#CCN1CCCC1` [OXOTREMORINE], the concentration for half-maximal inhibition (IC50) in [1] came to 93 nM; in assay [2] it was 2300 nM; in [3] it was 1.2 nM; in assay [4], 84 nM.

For `CC(C)Oc1noc2c1CNCCC2`, the IC50 in [1] is 13 nM; in [2], 370 nM; in [5] it was 11 nM; in assay [4] it was 360 nM. In addition, the Agonist index in assay [6] was 5.4.

As for `C#CCOc1noc2c1CNCCC2`, the IC50 in [1] came out at 23 nM; in assay [2] it was 480 nM; in [5], 0.75 nM; in assay [4], 82 nM. The EC50 in assay [7] was found to be 950 nM; in [8], 140 nM; in assay [9], 6.7 nM; in assay [10] it was 30 nM; in assay [11] it was 130 nM. The compound further yielded an Agonist index in [6] of 104.

For `COc1noc2c1CNCCC2`, the IC50 in assay [1] came to 390 nM; in assay [2] it was 6400 nM; in assay [5], 10 nM; in assay [4], 350 nM. Besides, the EC50 was 4700 nM in assay [7]; 460 nM in [8]; 43 nM in assay [9]; 240 nM in [10]; 620 nM in assay [11]. This compound also registered an Agonist index in [6] of 104.

With `CCOc1noc2c1CNCCC2`, the IC50 in [1] was determined as 18 nM; in assay [2] it was 530 nM; in assay [5] it was 3.4 nM; in assay [4], 140 nM. Also, the EC50 came out at 95 nM in assay [8], 41 nM in [9], 67 nM in [10] and 500 nM in assay [11]. In addition, the Agonist index in assay [6] worked out at 25.
